These results are taken from patent US9593127B2, “Heterocyclylalkyne derivatives and their use as modulators of mGluR5 receptors” (RECORDATI IRELAND LTD., priority 2014, dated 2017).

For orientation: IC50 means the concentration that inhibits the measured activity by half. A word on the EC50: it is the concentration at which the effect is half-maximal.

The target of data set [1] is T1, human mGlu5 receptor (CHO T-REx h-mGluR5 cells) (Homo sapiens (Human), UniProt P41594). The data set can be described thus: Calcium fluorescence measurement, antagonist potency against EC80 of quisqualate. As to conditions: agonist quisqualate at EC80; read-out: h.c. mgluR5 Calcium IC50. The data set is classed as cell-based. The source says: (§1) Cell lines stably transfected were generated using inducible expression vectors encoding human mGlu5 receptor using the Tetracycline-Regulated Expression system (T-REx™ system, Invitrogen, Life Technologies). Human mGluR5 open reading frame (ORF), comprehensive of the stop codon, were cloned into the pcDNA4/TO/myc-His™ A vector, carrying the TetO2 sequences. The insertion site was HindIII-PstI for mGluR5 receptors. The obtained constructs were then transfected into the T-REx CHO™ cell line using the FuGENE protocol (Roche); the CHO T-REx™ cell line stably expresses the Tet repressor (from the pcDNA6/TR plasmid) under the selection of blasticidin, 10 μg/ml. Stable clones were obtained selecting with zeocine 1 mg/ml and maintaining in ULTRA CHO medium (LONZA) supplemented with dialyzed FBS, zeocin, blasticidine, at 37° C., in an atmosphere of 5% CO2. The expression of h-mGluR5 receptors was de-repressed with 1 μg/ml tetracycline for 18 h before binding experimentation, while the expression of h-mGluR5 receptors was de-repressed respectively with 3 ng/ml and 10 ng/ml tetracycline for 18 h before calcium fluorescence experimentation.
(§2) Cells were seeded into black-walled, clear-bottom, 96-well plates at a density of 80000 cell/well, in RPMI (without Phenol Red, without L-glutamine; Gibco LifeTechnologies, CA) supplemented with 10% dialyzed FBS. Following 18-h incubation with tetracycline, the cells were loaded with […] Ca^2+—sensitive fluorescent dye Fluo-4/AM (Molecular Probes) in Hanks' balanced saline solution (HBSS, Gibco LifeTechnologies, CA) with 20 mM Hepes (Sigma) and 2.5 mM probenecid (Sigma), for 1 h at 37° C. The cells were washed three times with HBSS to remove extracellular dye. Fluorescence signals were measured by using the fluorescence microplate reader Flexstation III (Molecular Devices) at sampling intervals of 1.5 s for 60 s.
(§3) The antagonist potency was determined using the EC80 of the quisqualate used as agonist and the potentiation of mGlu5 activation was determined using the EC20 of the agonist (quisqualate or glutamate). The compounds were applied 10 minutes before the application of the agonist. For binding and calcium assay studies, the compounds were dissolved in DMSO or demineralized water according to their solubility. All the reported doses were those of the corresponding salts or bases.

The target in data set [2] is T1, human mGlu5 receptor (CHO T-REx h-mGluR5 cells). The data set can be described thus: Calcium fluorescence measurement, potentiation of mGlu5 activation at EC20 of quisqualate. In kind it is cell-based. The conditions noted are these: for Fold Shift 1 microM Quisq. / Fold Inc. Quisq.: agonist quisqualate; for EC50: potentiation, agonist quisqualate at EC20, read-out: EC50 nM Quisq.
Description: as §1, §2, §3

The target is the same in data set [3]. The data set can be described thus: Radioligand binding assay at cloned mGluR5 ([3H]MPEP displacement). The conditions noted are these: 4 nM [3H]MPEP, read-out: h.c. mglu R5 IC50.
Description: as §1
Affinity at transmembrane glutamate metabotropic mGluR5 receptor subtypes was evaluated according to the methods of Anderson (Anderson et al., J Pharmacol. Exp. Ther., (2002), Vol. 303(3), pp. 1044-51), with some modifications. Cloned mGluR5 was obtained by re-suspending CHO T-REx h-mGluR5 cells (50 μg/well) in 20 mM HEPES, 2 mM MgCl2, 2 mM CaCl2, pH 7.4, that then were incubated in a final volume of 1 ml for 60 min at 25° C. with 4 nM [^3H]MPEP in the absence or presence of competing drugs. Non-specific binding was determined in the presence of […] MPEP. The incubation was stopped by addition of cold Tris buffer pH 7.4 and rapid filtration through 0.2% polyethyleneimine pretreated Filtermat 1204-401 (Perkin Elmer) filters. The filters were then washed with cold buffer and the radioactivity retained on the filters was counted by liquid scintillation spectrometry (Betaplate 1204 BS-Wallac).
as §3
The inhibition curves of the tested compounds at native and cloned mGluR1 and mGluR5 subtypes were determined by nonlinear regression analysis using software Prism 4.0 (Graphpad, San Diego, Calif.). The IC50 values and pseudo-Hill slope coefficients were estimated by the program. The values for the inhibition constant, Ki, were calculated according to the equation Ki=IC50/(1+[L]/Kd), where [L] is the concentration of radioligand and Kd is the equilibrium dissociation constant of the radioligand-receptor complex (Cheng et al., Biochem. Pharmacol. (1973), Vol. 22, pp. 3099-3108).

Data set [4] has the same target. The data set can be described thus: Calcium fluorescence measurement, potentiation of mGlu5 activation at EC20 of glutamate. The data set is classed as cell-based.
Description: as §1, §2, §3

T1 sequence (P41594 21-1212): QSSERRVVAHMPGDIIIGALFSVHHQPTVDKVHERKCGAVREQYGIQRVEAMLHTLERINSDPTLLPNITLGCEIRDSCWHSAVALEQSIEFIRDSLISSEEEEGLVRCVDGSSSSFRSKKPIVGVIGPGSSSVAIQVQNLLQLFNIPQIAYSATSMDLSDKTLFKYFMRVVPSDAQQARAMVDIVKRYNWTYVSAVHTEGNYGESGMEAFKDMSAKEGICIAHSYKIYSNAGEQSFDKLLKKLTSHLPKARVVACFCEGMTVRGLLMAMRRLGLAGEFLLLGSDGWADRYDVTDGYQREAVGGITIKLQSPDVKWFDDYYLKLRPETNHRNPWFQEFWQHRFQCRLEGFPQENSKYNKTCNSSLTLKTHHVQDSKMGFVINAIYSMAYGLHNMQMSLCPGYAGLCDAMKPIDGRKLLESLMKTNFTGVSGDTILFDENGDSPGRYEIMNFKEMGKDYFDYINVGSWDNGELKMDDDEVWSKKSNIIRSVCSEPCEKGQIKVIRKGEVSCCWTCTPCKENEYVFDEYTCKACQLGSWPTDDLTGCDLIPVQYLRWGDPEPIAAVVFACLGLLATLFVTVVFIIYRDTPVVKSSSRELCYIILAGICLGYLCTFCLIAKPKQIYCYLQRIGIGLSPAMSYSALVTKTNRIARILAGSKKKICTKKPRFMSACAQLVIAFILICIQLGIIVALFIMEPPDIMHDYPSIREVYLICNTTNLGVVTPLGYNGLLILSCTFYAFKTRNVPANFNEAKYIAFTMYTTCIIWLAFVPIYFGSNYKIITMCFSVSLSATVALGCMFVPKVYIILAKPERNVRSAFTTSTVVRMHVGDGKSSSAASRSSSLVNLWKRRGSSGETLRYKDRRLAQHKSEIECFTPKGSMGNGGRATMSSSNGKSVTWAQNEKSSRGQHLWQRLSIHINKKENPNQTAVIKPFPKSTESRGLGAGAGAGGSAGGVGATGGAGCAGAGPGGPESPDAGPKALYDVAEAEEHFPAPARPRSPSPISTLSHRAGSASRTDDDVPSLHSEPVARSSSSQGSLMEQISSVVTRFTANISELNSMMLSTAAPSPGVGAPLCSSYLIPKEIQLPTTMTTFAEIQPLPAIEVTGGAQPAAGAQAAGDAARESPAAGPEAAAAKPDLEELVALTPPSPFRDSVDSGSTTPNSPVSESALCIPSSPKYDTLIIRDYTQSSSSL

Regarding `CC(C)(C)OC(=O)N1CCC2C(C#Cc3cccc(Cl)c3)=NOC21` (stereo not drawn) [Example 1, tert-butyl 3-[2-(3-chlorophenyl)ethynyl]-3a,4,5,6a-tetrahydropyrrolo[3,2-d]isoxazole-6-carboxylate], in data set [1], the IC50 is more than 1 µM. Besides, in data set [2], the “Fold Shift 1 microM Quisq.” value stood at 1.8 fold, the “Fold Inc. Quisq.” value is listed as 1.96 fold and the EC50 stood at 37.1 nM. The IC50 in data set [3] came out at 0.00387 µM.
Consider `O=C(c1ccco1)N1CCC2C(C#Cc3cccc(Cl)c3)=NOC21` (stereo not drawn) [Example 2, [3-[2-(3-chlorophenyl)ethynyl]-3a,4,5,6a-tetrahydropyrrolo[3,2-d]isoxazol-6-yl]-(2-furyl)methanone], for which the values for the 50% inhibitory concentration (IC50) in data set [1] and in data set [3] were more than 1 µM and 0.0296 µM, respectively. The “Fold Inc. Quisq.” value in data set [2] worked out at 0 fold.
For `CCOC(=O)N1CCC2C(C#Cc3cccc(Cl)c3)=NOC21` (stereo not drawn) [Example 3, ethyl 3-[2-(3-chlorophenyl)ethynyl]-3a,4,5,6a-tetrahydropyrrolo[3,2-d]isoxazole-6-carboxylate], the IC50 was determined as 0.0548 µM in data set [1] and 0.0815 µM in data set [3].
Turning to `O=C(N1CCOCC1)N1CCC2C(C#Cc3cccc(Cl)c3)=NOC21` (stereo not drawn) [Example 6, [3-[2-(3-chlorophenyl)ethynyl]-3a,4,5,6a-tetrahydropyrrolo[3,2-d]isoxazol-6-yl]-morpholino-methanone], the “Fold Increase 1 microM Glutam.” value in data set [4] (1 microM, agonist glutamate) is listed as 3.24 fold. The “Fold Increase Glutam.” value in data set [4] (agonist glutamate) amounted to 5.1 fold. Further, in data set [4] (potentiation, agonist glutamate at EC20, read-out: EC50 nM Glutam.), the 50% effective concentration (EC50) was 95.2 nM. In addition, in data set [2], the “Fold Shift 1 microM Quisq.” value amounted to 2.7 fold, the “Fold Inc. Quisq.” value was found to be 3.3 fold and the EC50 was determined as 132 nM. Also, in data set [3], the concentration for half-maximal inhibition (IC50) worked out at 0.0248 µM.
Turning to `CN(C)C(=O)N1CCC2C(C#Cc3cccc(Cl)c3)=NOC21` (stereo not drawn) [Example 7, 3-[2-(3-chlorophenyl)ethynyl]-N,N-dimethyl-3a,4,5,6a-tetrahydropyrrolo[3,2-d]isoxazole-6-carboxamide], the IC50 in data set [1] stood at 0.212 µM; in data set [3], 0.0592 µM.
For `O=C(N1CCCCC1)N1CCC2C(C#Cc3cccc(Cl)c3)=NOC21` (stereo not drawn) [Example 8, [3-[2-(3-chlorophenyl)ethynyl]-3a,4,5,6a-tetrahydropyrrolo[3,2-d]isoxazol-6-yl]-(1-piperidyl)methanone], in that order: more than 1 µM and 0.0125 µM.
For `O=C(N1CCCC1)N1CCC2C(C#Cc3cccc(Cl)c3)=NOC21` (stereo not drawn) [Example 9, [3-[2-(3-chlorophenyl)ethynyl]-3a,4,5,6a-tetrahydropyrrolo[3,2-d]isoxazol-6-yl]-pyrrolidin-1-yl-methanone], in that order: more than 1 µM and 0.015 µM.
For the compound `Cc1cccc(C#CC2=NOC3C2CCN3C(=O)OC(C)(C)C)c1` (stereo not drawn) [Example 10, tert-butyl 3-[2-(m-tolyl)ethynyl]-3a,4,5,6a-tetrahydropyrrolo[3,2-d]isoxazole-6-carboxylate], in data set [1], the half-maximal inhibitory concentration (IC50) was more than 1 µM. In data set [2], the “Fold Shift 1 microM Quisq.” value is 2.2 fold, the “Fold Inc. Quisq.” value is reported as 3.5 fold and the half-maximal effective concentration (EC50) was 141 nM. Further, the IC50 in data set [3] is 0.00365 µM.
Turning to `Cc1cccc(C#CC2=NOC3C2CCN3C(=O)N2CCCC2)c1` (stereo not drawn) [Example 11, [3-[2-(m-tolyl)ethynyl]-3a,4,5,6a-tetrahydropyrrolo[3,2-d]isoxazol-6-yl]-pyrrolidin-1-yl-methanone], the half-inhibitory concentration (IC50) in data set [1] is more than 1 µM; in data set [3] it was 0.017 µM.
Consider `Cc1cccc(C#CC2=NOC3C2CCN3C(=O)N2CCOCC2)c1` (stereo not drawn) [Example 13, morpholino-[3-[2-(m-tolyl)ethynyl]-3a,4,5,6a-tetrahydropyrrolo[3,2-d]isoxazol-6-yl]methanone], for which the concentration for half-maximal inhibition (IC50) in data set [1] is more than 1 µM. Moreover, in data set [2], the “Fold Shift 1 microM Quisq.” value stood at 3.2 fold, the “Fold Inc. Quisq.” value was 2.06 fold and the half-maximal effective concentration (EC50) was determined as 131 nM. Also, in data set [3], the concentration for half-maximal inhibition (IC50) was 0.05 µM.
On to `CCN(CC)C(=O)N1CCC2C(C#Cc3cccc(C)c3)=NOC21` (stereo not drawn) [Example 14, N,N-diethyl-3-[2-(m-tolyl)ethynyl]-3a,4,5,6a-tetrahydropyrrolo[3,2-d]isoxazole-6-carboxamide], for which the IC50 in data set [1] is more than 1 µM; in data set [3], 0.0148 µM.
For `CON(C)C(=O)N1CCC2C(C#Cc3cccc(C)c3)=NOC21` (stereo not drawn) [Example 15, N-methoxy-N-methyl-3-[2-(m-tolyl)ethynyl]-3a,4,5,6a-tetrahydropyrrolo[3,2-d]isoxazole-6-carboxamide], in that order: 0.0211 µM and 0.022 µM.
